In one series the target is CYP2E1 (Sus scrofa, UniProt P79383). As to conditions: uncastrated Yorkshire male pigs; 0.5 g/kg BW daily by gavage, day 14 to day 50; after day 27; P<0.05. How it is done:
Eight uncastrated Yorkshire male pigs were utilized in the study. Four males were assigned to the control group while the remaining four were treated with 0.5 g/kg BW of ethanol daily by gavage. Ethanol is a well-established inducer of CYP2E1. Treatment began at day 14 and continued until day 50. Blood samples were collected weekly and plasma skatole levels were measured by HPLC.

A further series deals with glucuronyl transferase. The series is described as follows: Conjugation of microsomal skatole metabolites with glucuronic acid (Trial II-c). The class given is in vitro ADME. As to conditions: pig liver microsomes, 1 mM UDP-GA, 30 min. How it is done: (§1) Trial II. For evaluation of skatole metabolite production (Trial II-a, n=22), 1 mg/ml of liver microsomes were incubated in Buffer 1,1 mM NADPH, 1 mM NADH, and 0.01 mM skatole in a total volume of 2 ml for 30 min at 37° C. as previously described (Babol et al., 1997). To determine which microsomal skatole metabolites are conjugated with sulfate (Trial II-b, n=3), the reaction mixture was first incubated for 30 min as in Trial II-a. PAPS was then added to 1 mM final concentration and the incubation continued for 30, 60 and 90 min. Control incubations were performed for the same period of time with no PAPS added. Assays to evaluate the conjugation of skatole metabolites with glucuronic acid (Trial II-c, n=3) were conducted in a similar way by adding 1 mM of UDP-GA after 30 min of initial incubation and continuing the incubation for a further 7.5, 15 and 30 min. […]
(§2) Trial II. […] The metabolites were separated with RP C18 column and detected by measuring UV absorbance at 250 nm and fluorescence with excitation and emission wavelengths set at 285 and 340 nm.
(§3) Trial II. The effect of time of incubation of skatole metabolites with PAPS (Trial I1-b) and UDPGA (Trial I1-c) on the concentrations of the metabolites was analyzed using untransformed values with the GLM procedure. […] The differences in the metabolic activities among the groups were analyzed with the GLM procedure.
A general note: Microsomes from liver hold many membrane-bound enzymes, among them those of drug oxidation.

The next series deals with cytochrome P450. The method, then: The metabolism of skatole was assayed in a medium containing 50 mM Tris-HCL buffer, pH 7.4, 10 mM potassium phosphate, 0.1 mM EDTA, 20% glycerol, 0.01 mM skatole and 1 mg/mL microsomel protein in a total volume of 2 mL. The reactions were started by addition of NADH and NADPH to 1 mM final concentration of each after 3 min of preincubation at 37° C. After 30 min at 37° C., the reactions were terminated by addition of 2 mL of ice-cold 0.2 M ammonium acetate buffer, pH 5.0.
Those incubations with no inhibitor added were regarded as controls. The effect of different P450 inhibitors on skatole metabolism was evaluated under the same conditions by including different concentrations of P450 inhibitors into the medium before preincubation.
Each assay was performed in duplicate. […] After adding ammonium acetate buffer, 5 μL of 0.01 mg/mL indole-3-acetonitrile was added to the reaction mixture as an internal standard. The mixture was then passed through a solid phase extraction tC18 cartridge (Waters Co., Milford, Mass.) previously conditioned with 2 mL of methanol and then 2 mL of water. The column was washed with 1 mL of water and skatole metabolites were eluted with 2×0.5 mL of acetonitrile. The acetonitrile was removed under a gentle stream of nitrogen at 40° C. and the metabolites were resuspended in 200 μl of acetonitrile for HPLC analysis. The HPLC equipment included a Spectra-Physics (San Jose, Calif., USA) SP8800 pump, SP8800 autosampler and SP4290 integrator, and a Phenomenex (Torrance, Calif., USA) Prodigy ODS-2 C18, 250×4.6 mm, 5 μm column. […] Injection volume was 100 μl.
For the purpose of the analysis, peak areas of the metabolites in control incubations were considered as 100%. Peak areas of the metabolites in the incubations with inhibitors were transformed to values of those for controls. The statistical model included the effect of the concentration of inhibitor and the effect of animal.

Series [1] has as its system thermostable phenol sulfotransferase. The series is described as follows: Sulfation of 5-OH-3MI by liver cytosol with phenolsulfotransferase inhibitors (Trial III). The class given is biochemical. The settings on record: pig liver cytosol, 0.01 mM 5-OH-3MI, 1 mM PAPS, 10 min. How it is done:
Trial III. The assay of 5-OH-3MI sulfation in Trial III utilized 1 mg cytosolic protein incubated with 0.01 mM 5-OH-3MI and 1 mM PAPS in 0.05M Tris/HCl pH 7.4 buffer containing 5 mM MgC12 in a total volume of 250 μl. The incubations were carried out in a shaking water bath at 37° C. for 10 min and the reaction was stopped with 250 μL ice-cold acetonitrile. After the addition of acetonitrile, the mixture was vortexed and centrifuged at 4,000 g for 15 min. A 400 μL aliquot of the clear supernatant was diluted with 400 μL water and 100 μL of the mixture was analyzed immediately by high-performance liquid chromatography (HPLC) as described below. Conjugates were identified based on the following criteria: (1) no peaks corresponding to conjugates appeared when cytosol and/or PAPS were excluded from the incubations; (2) no peaks corresponding to conjugates appeared when boiled cytosol was used, and (3) the peaks corresponding to the conjugates disappeared after addition of 10 μl of type H-2 sulfatase to the incubation mixture and further incubation for 3 h at 37° C. in a shaking water bath. Sulfation activity was measured as the formation of sulfoconjugate per minute per mg of cytosolic protein.
The effects of the phenolsulfotransferase inhibitors PCP and DCNP on the sulfation of 5-OH-3MI were determined by including different final concentrations of PCP or DCNP (0.001, 0.01, 0.1, 1, 10, 100 μM) in the assays. PCP was dissolved in methanol (final assay concentration 1%, v/v) and control incubations for PCP inihibition studies contained 1% methanol. DCNP was dissolved in incubation buffer.
Trial III. 5-OH-skatole and its sulfate conjugate were separated using a previously reported binary gradient system method (Hernandez et al., 1991) with a reverse-phase Prodigy ODS, 5 μm, 250×4.6 mm column (Phenomenex, Torrance, Calif., USA). The mobile phase consisted of 0.05M ammonium acetate buffer pH 5.0, at a flow rate of 1.2 ml/min. A 25-min linear gradient from 10 to 60% acetonitrile was used, with initiation of the gradient 2 min after sample injection. 5-OH-skatole and its conjugate were determined by their fluorescence (excitation wavelength of 285 nm, emission wavelength of 350 nm). Typical retention times for 5-OH-skatole and its conjugate were 18.5 and 13.4 min, respectively.

Another series concerns sulfotransferase. The series is described as follows: Conjugation of microsomal skatole metabolites with sulfate (Trial II-b). It is filed as in vitro ADME. The settings on record: pig liver microsomes, 1 mM PAPS, 90 min. The method, then:
as §1, §2, §3

Molecules are shown by their SMILES. Structures can show the parent of a compound that is named as a salt.

Chain of CYP2E1 (P79383 whole entry): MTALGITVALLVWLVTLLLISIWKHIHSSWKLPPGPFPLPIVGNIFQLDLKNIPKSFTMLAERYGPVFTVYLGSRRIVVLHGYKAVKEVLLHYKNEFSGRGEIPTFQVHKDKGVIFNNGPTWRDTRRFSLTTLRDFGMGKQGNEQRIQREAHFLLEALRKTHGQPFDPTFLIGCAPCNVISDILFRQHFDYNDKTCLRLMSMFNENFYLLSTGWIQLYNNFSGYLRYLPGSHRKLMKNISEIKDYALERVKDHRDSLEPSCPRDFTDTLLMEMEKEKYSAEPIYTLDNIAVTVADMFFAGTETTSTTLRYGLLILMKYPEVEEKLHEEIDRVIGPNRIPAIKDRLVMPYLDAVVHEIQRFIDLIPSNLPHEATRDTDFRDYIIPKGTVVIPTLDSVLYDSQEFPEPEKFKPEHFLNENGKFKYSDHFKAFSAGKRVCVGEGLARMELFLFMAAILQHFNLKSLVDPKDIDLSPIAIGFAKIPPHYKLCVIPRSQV

Turning to `CCO` [ethanol], the “Plasma skatole levels versus control group” value on CYP2E1 is reported as “significantly lower”.

Consider `Cc1c[nH]c2ccccc12` [skatole, 3-methylindole], for which the “Concentration in incubation with UDPGA, % of control incubations” value with glucuronyl transferase is 126.1%.

With `CC(C)(C(=O)c1cccnc1)c1cccnc1` [metyrapone], in the series on cytochrome P450, the “Amount of skatole remaining in the reaction mixture after incubation versus control” value was “higher” and the “Formation of UV-3, effect in words” value was “reduced”.

For the compound `O=[N+]([O-])c1cc(Cl)c(O)c(Cl)c1` [DCNP, 2,6-dichloro-4-nitrophenol], the results for the “5-sulfatoxyskatole production, % of the control” value in series [1] (inhibitor 10 μM) and in series [1] (inhibitor 100 μM) were 13.8% and 7.1%, respectively.

For the compound `Cc1c[nH]c2cc(O)ccc12` [pro-MII, 6-Hydroxy-3-methylindole], in the series on sulfotransferase, the “Concentration in incubation with PAPS, % of control” value amounted to 40%. Moreover, the “Concentration in incubation with UDPGA, % of control incubations” value in the series with glucuronyl transferase is on record as 20%.

As to `C=CCSCC=C` [DAS, diallyl sulfide], in the series on cytochrome P450, the “Formation of all the other skatole metabolites, except for F-1” value was “inhibited” and the “Skatole disappearance, effect in words” value is on record as “reduced”.

Consider `CCCC(C(=O)OCCN(CC)CC)(c1ccccc1)c1ccccc1` [SKF 525A, SKF 525A hydrochloride (Proadifen)], for which, in the series on cytochrome P450, the “Amount of skatole remaining in the reaction mixture after incubation versus control” value is listed as “not affected”; the “Formation of F-2, effect in words” value is reported as “reduced”; the “Formation of F-3, effect in words” value was “reduced”; the “Formation of UV-3, effect in words” value is reported as “reduced”.

Take `Oc1c(Cl)c(Cl)c(Cl)c(Cl)c1Cl` [PCP, Pentachlorophenol]: the figures for the “5-sulfatoxyskatole production, % of the control” value in series [1] (inhibitor 10 μM) and in series [1] (inhibitor 100 μM) were 35.3% and 8%, respectively.

These data come from patent US20050216965A1, “Method of detecting and reducing boar taint” (UNIVERSITY OF GUELPH, priority 1998, published 2005).
